Source: US20250230165A1, “HETEROCYCLIC COMPOUNDS FOR USE IN THE TREATMENT OF CANCER” (ARTIOS PHARMA LIMITED, priority 2021, published 2025)

Target: T1, Human Polθ polymerase domain (aa1820-2590) (Homo sapiens, UniProt O75417)
T1 construct: Human Polθ polymerase domain (aa1820-2590) was expressed in E. coli; made in house; host or cells: E. coli
T1 sequence (O75417 1820-2590): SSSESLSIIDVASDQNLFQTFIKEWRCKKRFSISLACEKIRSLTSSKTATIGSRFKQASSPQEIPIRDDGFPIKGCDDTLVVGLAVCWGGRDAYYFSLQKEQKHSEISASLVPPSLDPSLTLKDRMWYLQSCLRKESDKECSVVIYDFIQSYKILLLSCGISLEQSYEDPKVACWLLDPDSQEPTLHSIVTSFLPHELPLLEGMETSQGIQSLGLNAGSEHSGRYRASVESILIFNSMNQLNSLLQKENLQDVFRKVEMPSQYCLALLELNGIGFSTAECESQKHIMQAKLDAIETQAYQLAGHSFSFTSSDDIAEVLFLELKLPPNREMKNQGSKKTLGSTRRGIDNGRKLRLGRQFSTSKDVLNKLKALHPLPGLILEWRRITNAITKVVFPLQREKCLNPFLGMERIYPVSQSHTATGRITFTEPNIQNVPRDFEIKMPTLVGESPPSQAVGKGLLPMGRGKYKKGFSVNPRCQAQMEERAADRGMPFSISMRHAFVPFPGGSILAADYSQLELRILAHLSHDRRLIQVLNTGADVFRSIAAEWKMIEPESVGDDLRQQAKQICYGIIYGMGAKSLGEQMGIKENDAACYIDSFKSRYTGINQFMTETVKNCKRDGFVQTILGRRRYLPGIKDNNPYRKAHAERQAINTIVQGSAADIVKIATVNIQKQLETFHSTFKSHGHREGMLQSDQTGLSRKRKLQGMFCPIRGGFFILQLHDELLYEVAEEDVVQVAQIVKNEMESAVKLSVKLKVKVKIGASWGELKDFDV
Experiment: Polθ Polymerase Domain Kinact/KI Assay (PicoGreen)
Type: biochemical
Conditions: 0.8 nM Polθ, 100 nM DNA substrate, kobs vs [I] fit for 2-step covalent inhibitor
Procedure, shortened: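 Time-dependent inhibition was followed with 0.8 nM polymerase domain, 100 nM DNA substrate and […], reactions quenched over 60 min and quantified by PicoGreen. Kinact and KI came from a secondary plot of kobs against inhibitor concentration.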

Row | SMILES | Kinact/Kl [M⁻¹ s⁻¹]
1 | C=C(CN(C)C)C(=O)N1CC(CN2C[C@H]3CC(=O)N(c4cc(C(F)(F)F)cc(C)n4)[C@@H]3C(=O)N(C)c3cccc(Cl)c32)C1 [Example 297, (3aR,11aS)-6-chloro-5-((1-(2-((dimethylamino)methyl)acryloyl)azetidin-3-yl)methyl)-10-methyl-1-(6-methyl-4-(trifluoromethyl)pyridin-2-yl)-1,3a,4,5,10,11a-hexahydro-2H-benzo[b]pyrrolo[2,3-f][1,4]diazocine-2,11(3H)-dione] | 1.47e+06
2 | C=C(CN(C)C)C(=O)N1CC(CCN2C[C@H]3CC(=O)N(c4cc(C(F)(F)F)cc(C)n4)[C@@H]3C(=O)N(C)c3cccc(Cl)c32)C1 [Example 298, (3aR,11aS)-6-chloro-5-(2-(1-(2-((dimethylamino)methyl)acryloyl)azetidin-3-yl)ethyl)-10-methyl-1-(6-methyl-4-(trifluoromethyl)pyridin-2-yl)-1,3a,4,5,10,11a-hexahydro-2H-benzo[b]pyrrolo[2,3-f][1,4]diazocine-2,11(3H)-dione] | 3.64e+06
3 | C=C(CN(C)C)C(=O)N1CC(CCCN2C[C@H]3CC(=O)N(c4cc(C(F)(F)F)cc(C)n4)[C@@H]3C(=O)N(C)c3cccc(Cl)c32)C1 [Example 299, (3aR,11aS)-6-chloro-5-(3-(1-(2-((dimethylamino)methyl)acryloyl)azetidin-3-yl)propyl)-10-methyl-1-(6-methyl-4-(trifluoromethyl)pyridin-2-yl)-1,3a,4,5,10,11a-hexahydro-2H-benzo[b]pyrrolo[2,3-f][1,4]diazocine-2,11(3H)-dione] | 1.99e+06
4 | C=C(CN(C)C)C(=O)N1CC(C(F)CCCN2C[C@H]3CC(=O)N(c4cc(C(F)(F)F)cc(C)n4)[C@@H]3C(=O)N(C)c3cccc(Cl)c32)C1 (stereo partly drawn) [Example 300, (3aR,11aS)-6-chloro-5-(4-(1-(2-((dimethylamino)methyl)acryloyl)azetidin-3-yl)-4-fluorobutyl)-10-methyl-1-(6-methyl-4-(trifluoromethyl)pyridin-2-yl)-1,3a,4,5,10,11a-hexahydro-2H-benzo[b]pyrrolo[2,3-f][1,4]diazocine-2,11(3H)-dione] | 3.93e+06
5 | C=C(CN(C)C)C(=O)N1CC(CC(F)CCN2C[C@H]3CC(=O)N(c4cc(C(F)(F)F)cc(C)n4)[C@@H]3C(=O)N(C)c3cccc(Cl)c32)C1 (stereo partly drawn) [Example 301, (3aR,11aS)-6-chloro-5-(4-(1-(2-((dimethylamino)methyl)acryloyl)azetidin-3-yl)-3-fluorobutyl)-10-methyl-1-(6-methyl-4-(trifluoromethyl)pyridin-2-yl)-1,3a,4,5,10,11a-hexahydro-2H-benzo[b]pyrrolo[2,3-f][1,4]diazocine-2,11(3H)-dione] | 1.78e+06
6 | C=C(CN(C)C)C(=O)N1CC(CCC(F)CN2C[C@H]3CC(=O)N(c4cc(C(F)(F)F)cc(C)n4)[C@@H]3C(=O)N(C)c3cccc(Cl)c32)C1 (stereo partly drawn) [Example 302, (3aR,11aS)-6-chloro-5-(4-(1-(2-((dimethylamino)methyl)acryloyl)azetidin-3-yl)-2-fluorobutyl)-10-methyl-1-(6-methyl-4-(trifluoromethyl)pyridin-2-yl)-1,3a,4,5,10,11a-hexahydro-2H-benzo[b]pyrrolo[2,3-f][1,4]diazocine-2,11(3H)-dione] | 3.04e+06
7 | C#CC(=O)N1CC(F)(COCCN2C[C@H]3CC(=O)N(c4cc(C(F)(F)F)cc(C)n4)[C@@H]3C(=O)N(C)c3cccc(Cl)c32)C1 [Example 303, (3aR,11aS)-6-chloro-5-(2-((3-fluoro-1-propioloylazetidin-3-yl)methoxy)ethyl)-10-methyl-1-(6-methyl-4-(trifluoromethyl)pyridin-2-yl)-1,3a,4,5,10,11a-hexahydro-2H-benzo[b]pyrrolo[2,3-f][1,4]diazocine-2,11(3H)-dione] | 1.8e+06

The remaining lines, values ahead:

Row | Kinact/Kl [M⁻¹ s⁻¹] | SMILES
8 | 1.87e+06 | Cc1cc(C(F)(F)F)cc(N2C(=O)C[C@@H]3CN(CCOCC4(F)CN(C(=O)/C=C/CN(C)C)C4)c4c(Cl)cccc4N(C)C(=O)[C@H]32)n1 [Example 304, (3aR,11aS)-6-chloro-5-(2-((1-((E)-4-(dimethylamino)but-2-enoyl)-3-fluoroazetidin-3-yl)methoxy)ethyl)-10-methyl-1-(6-methyl-4-(trifluoromethyl)pyridin-2-yl)-1,3a,4,5,10,11a-hexahydro-2H-benzo[b]pyrrolo[2,3-f][1,4]diazocine-2,11(3H)-dione]
9 | 1.82e+06 | C=C(CN(C)C)C(=O)N1CC(F)(COCCN2C[C@H]3CC(=O)N(c4cc(C(F)(F)F)cc(C)n4)[C@@H]3C(=O)N(C)c3cccc(Cl)c32)C1 [Example 305, (3aR,11aS)-6-chloro-5-(2-((1-(2-((dimethylamino)methyl)acryloyl)-3-fluoroazetidin-3-yl)methoxy)ethyl)-10-methyl-1-(6-methyl-4-(trifluoromethyl)pyridin-2-yl)-1,3a,4,5,10,11a-hexahydro-2H-benzo[b]pyrrolo[2,3-f][1,4]diazocine-2,11(3H)-dione]
10 | 1.54e+06 | Cc1cc(C(F)(F)F)cc(N2C(=O)C[C@@H]3CN(Cc4cn5c(n4)CN(C(=O)/C=C/C(F)F)CC5)c4c(Cl)cccc4N(C)C(=O)[C@H]32)n1 [Example 306, (3aR,11aS)-6-chloro-5-((7-((E)-4,4-difluorobut-2-enoyl)-5,6,7,8-tetrahydroimidazo[1,2-a]pyrazin-2-yl)methyl)-10-methyl-1-(6-methyl-4-(trifluoromethyl)pyridin-2-yl)-1,3a,4,5,10,11a-hexahydro-2H-benzo[b]pyrrolo[2,3-f][1,4]diazocine-2,11(3H)-dione]
11 | 1.35e+06 | Cc1cc(C(F)(F)F)cc(N2C(=O)C[C@@H]3CN(Cc4cn5c(n4)CN(C(=O)/C=C/C(F)(F)F)CC5)c4c(Cl)cccc4N(C)C(=O)[C@H]32)n1 [Example 307, (3aR,11aS)-6-chloro-10-methyl-1-(6-methyl-4-(trifluoromethyl)pyridin-2-yl)-5-((7-((E)-4,4,4-trifluorobut-2-enoyl)-5,6,7,8-tetrahydroimidazo[1,2-a]pyrazin-2-yl)methyl)-1,3a,4,5,10,11a-hexahydro-2H-benzo[b]pyrrolo[2,3-f][1,4]diazocine-2,11(3H)-dione]
12 | 280000 | Cc1cc(C(F)(F)F)cc(N2C(=O)C[C@@H]3CN(Cc4ccc5c(c4)OCCN5C(=O)/C=C/CN(C)C)c4c(Cl)cccc4N(C)C(=O)[C@H]32)n1 [Example 308, (3aR,11aS)-6-chloro-5-((4-((E)-4-(dimethylamino)but-2-enoyl)-3,4-dihydro-2H-benzo[b][1,4]oxazin-7-yl)methyl)-10-methyl-1-(6-methyl-4-(trifluoromethyl)pyridin-2-yl)-1,3a,4,5,10,11a-hexahydro-2H-benzo[b]pyrrolo[2,3-f][1,4]diazocine-2,11(3H)-dione]
13 | 1.02e+06 | Cc1cc(C(F)(F)F)cc(N2C(=O)C[C@@H]3CN(Cc4cc(F)c(NC(=O)/C=C/CN(C)C)c(F)c4)c4c(Cl)cccc4N(C)C(=O)[C@H]32)n1 [Example 309, (E)-N-(4-(((3aR,11aS)-6-chloro-10-methyl-1-(6-methyl-4-(trifluoromethyl)pyridin-2-yl)-2,11-dioxo-1,2,3,3a,4,10,11,11a-octahydro-5H-benzo[b]pyrrolo[2,3-f][1,4]diazocin-5-yl)methyl)-2,6-difluorophenyl)-4-(dimethylamino)but-2-enamide]
14 | 1.85e+06 | C=CC(=O)N1Cc2cc(CN3C[C@H]4CC(=O)N(c5cc(C(F)(F)F)cc(C)n5)[C@@H]4C(=O)N(C)c4cccc(C)c43)cnc2C1 [Example 312, (3aR,11aS)-5-((6-acryloyl-6,7-dihydro-5H-pyr-rolo[3,4-b]pyridin-3-yl)methyl)-6,10-dimethyl-1-(6-methyl-4-(trifluoro-methyl)pyridin-2-yl)-1,3a,4,5,10, 11a-hexahydro-2H-benzo[b]pyrrolo [2,3-f][1,4]diazo-cine-2,11(3H)-dione]
15 | 660000 | C=CC(=O)N1Cc2ccc(CN3C[C@H]4CC(=O)N(c5cc(C(F)(F)F)cc(C)n5)[C@@H]4C(=O)N(C)c4cccc(C)c43)cc2C1 [Example 313, (3aR,11aS)-5-((2-acryloylisoindolin-5-yl)methyl)-6,10-dimethyl-1-(6-meth-yl-4-(trifluorometh-yl)pyridin-2-yl)-1,3a,4,5,10,11a-hexahydro-2H-benzo [b]pyrrolo[2,3-f] [1,4]diazocine-2,11(3H)-dione]
